Measurements as given in patent publication US20030113833A1, “Device for measuring extracellular potential, method of measuring extracellular potential by using the same and apparatus for quickly screening drug provided therewith” (priority 2001, published 2003).

How the values were obtained:
Type in all cases: cell-based
[1] = test system: ion channels of a Lymnaea Stagnalis neuron; assay: Extracellular recording, normal distribution of standard deviations before and after application (Example 4); settings: after applying 50 μM; 0.478 before the application
Text: FIG. 14 is a conceptual diagram showing a configuration of an apparatus for detecting an action of a subject chemical substance on a biological sample according to the present invention. The apparatus is the same as the apparatus of FIG. 13, except that a normal distribution approximation section 103, an average/half-width calculation section 106 and an activity categorization section 109 are employed in place of the average calculation section 105 and the activity calculation section 108. Communications between each section are indicated by a dashed line or a solid line in FIG. 13. […] Note that similar to the apparatus of FIG. 13, the unit standard deviation calculation section 102, the normal distribution approximation section 103, the average/half-width calculation section 106 and the activity categorization section 109 may be representatively software programs which are recorded in a hard disk of a computer. […] Before and after 50 μM-concentration Carbachol was applied to a Lymnaea Stagnalis neuron, signals were obtained from the measurement section (signal source) 101, and the standard deviation of the signals was calculated in a manner similar to that of Example 1. […]

[2] = test system: ion channels of a Lymnaea Stagnalis neuron; assay: Extracellular recording, average of standard deviations of the electrical signal (Example 3); settings: 0, 0.1, 0.3, 1, 3, 10, 30 and 100 μM in artificial cerebrospinal fluid; 10 seconds of data
Protocol: The apparatus having the configuration shown in FIG. 13 was used to measure an action of a neuron to the chemical substance Carbachol, where the neuron was prepared from Lymnaea Stagnalis. Carbachol is a chemical substance known as an analog of the neurotransmitter Acetylcholine. Carbachol (manufactured by Sigma) was dissolved in artificial cerebrospinal fluid to concentrations of 0, 0.1, 0.3, 1, 3, 10, 30 and 100 μM. The solutions having these concentrations were used to measure an electrical signal emitted by the neuron. For each Carbachol concentration, time-series data for 10 seconds was obtained from the measurement section (signal source) 101 comprising the sensor substrate, and was sampled at intervals of 100 miliseconds, and the standard deviation of the sampling data was calculated. The average of the standard deviation was plotted in FIG. 17.

[3] = test system: Neurons prepared from the cerebral cortex of gestation day 17 SD rat embryos

Molecule	average of the normal distribution of standard deviation values every 5 miliseconds [1]	average of the standard deviation every 100 miliseconds versus concentration [2]	frequency at which the noise has a maximal value [3]	noise intensity in the absence of the Ca antagonist relative to that in its presence [3]
C[N+](C)(C)CCOC(N)=O [Carbachol]	0.703	the greater the Carbachol concentration, the greater the average of the standard deviation every 100 miliseconds		
ω-conotoxin GVIA [Ca antagonist]			about 4 Hz	about 1.5 times
